Assay [1] addresses T1, 20S Human Erythrocyte Proteasome (HEP) (Homo sapiens, UniProt P20618+P28074).
T1 construct: 20S Human Erythrocyte Proteasome (HEP), purchased from Immatics Biotechnologies Inc; purchased Immatics Biotechnologies Inc., Tübingen, Germany; host or cells: human erythrocytes (natural source)
The assay can be described thus: Chymotrypsin-like activity of 20S Human Erythrocyte Proteasome (HEP), IC50 determination. The assay is classed as biochemical. To be noted: assay of Example C, inhibition of HEP. As for the experimental part:
Assay for Chymotrypsin-like Activity of 20S Human Erythrocyte Proteasome (HEP)
Proteasome chymotrypsin-like activity of compounds of the invention was assayed according to the following procedure.
In 96-well microtiter plates, 20S Human Erythrocyte Proteasome (HEP), purchased from Immatics Biotechnologies Inc., Tübingen, Germany was plated at 0.2 μg/mL (about 0.6 nM catalytic sites) in 0.04% SDS 20 mM Tris buffer. A fluorimetric substrate Suc-LLVY-AMC (succinyl-Leu-Leu-Val-Tyr-7-amido-4-methylcoumarin), purchased from Sigma Inc., St. Louis, Mo., USA was added to a final concentration of 100 μM from a stock solution of 10 mM in dimethylsulfoxide. Reaction volumes were 100 μl per well. […] Proteasome activity was determined under conditions in which substrate hydrolysis increased linearly with time and the change in fluorescence signal was proportional to the concentration of free AMC.
Determination of IC50 Values for HEP and α-Chymotrypsin Inhibitors
Inhibition of the chymotrypsin-like activity of HEP and of bovine α-chymotrypsin was determined by incubating the enzyme with various concentrations of putative inhibitors for 15 minutes at 37° C. (or room temperature for α-chymotrypsin) prior to the addition of substrate. Each experimental condition was evaluated in triplicate, and replicate experiments were performed for the inhibitors described herein.

The target of assay [2] is T2, proteasome in Molt-4 cells (human leukemia) (Homo sapiens, UniProt P20618+P28074).
T2 sequence (P28074 60-263): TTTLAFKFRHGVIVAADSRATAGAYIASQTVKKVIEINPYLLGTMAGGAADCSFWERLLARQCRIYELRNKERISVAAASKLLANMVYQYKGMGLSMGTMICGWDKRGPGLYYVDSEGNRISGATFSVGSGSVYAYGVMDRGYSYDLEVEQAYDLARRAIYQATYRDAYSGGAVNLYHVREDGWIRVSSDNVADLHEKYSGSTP
T2 sequence (P20618 29-241): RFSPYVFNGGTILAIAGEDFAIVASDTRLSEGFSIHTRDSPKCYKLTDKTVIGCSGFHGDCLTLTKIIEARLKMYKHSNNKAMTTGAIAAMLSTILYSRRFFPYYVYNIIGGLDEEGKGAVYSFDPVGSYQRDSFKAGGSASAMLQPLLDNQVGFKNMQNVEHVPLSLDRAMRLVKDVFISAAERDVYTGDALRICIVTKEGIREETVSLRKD
It counts as cell-based. To be noted: assay of Example E, inhibition of MOLT4; read-out: MOLT4 (EC50). As for the experimental part:
Cellular Assay for Chymotrypsin-like activity of Proteasome in Molt-4 Cell Line
The chymotrypsin-like activity of proteasome in Molt-4 cells (human leukemia) was assayed according to the following procedure. A brief description of the method was published previously (Harding et al., J. Immunol., 1995, 155, 1767).
Molt-4 cells were washed and resuspended in HEPES-buffered Saline (5.4 mM KCl, 120 mM NaCl, 25 mM Glucose, 1.5 mM MgSO4, 1 mM Na pyruvate, 20 mM Hepes) and plated in 96-well microtiter white plates to a final concentration of 6×10^6 cells/mL. Then various 5× proteasome inhibitor concentrations (or diluted DMSO for controls), prepared from 250×DMSO solutions by diluting 50-fold using HEPES-buffered saline, were added to the plate to a final 1× concentration. After 15 minutes incubation at 37° C., a fluorimetric cell permeable substrate (MeOSuc-FLF-AFC) (methoxysuccinyl-Phe-Leu-Phe-7-amido-4-trifluoromethylcoumarin) purchased from Enzyme Systems Products, catalogue number AFC-88, was added to each well at a final concentration of 25 μM from a stock solution of 20 mM in DMSO. Reaction volumes were 100 μl per well.
The concentration of free AFC was monitored every 1.5 min for 30 min ([…]) on a Polastar Optima, BMG Labtechnologies microplate reader, using an excitation wavelength of 390 nm and emission wavelength of 520 nm. Proteasome activity was determined under conditions in which substrate hydrolysis increased linearly with time and the change in fluorescent signal was proportional to the concentration of free AFC.
Determination of EC50 Values for Proteasome Inhibitors in MOLT-4 Cell Line
Inhibition of chymotrypsin-like activity of proteasome in Molt-4 cells was determined by incubating cells with various concentrations of putative inhibitors for 15 minutes at 37° C. prior to the addition of substrate. Each experimental condition was evaluated in triplicate, and replicate experiments were performed for the inhibitors described herein.

For `CC(C)C[C@H](NC(=O)[C@H](CCCNC(=N)N[N+](=O)[O-])NC(=O)CC1C=CCC1)B1O[C@@H]2C[C@@H]3C[C@@H](C3(C)C)[C@]2(C)O1` (mixture of isomers) [D.3.59], the IC50 (usually the point on the concentration scale where inhibition reaches its midpoint) in assay [1] was < 10 nM. Moreover, the EC50 – broadly, the concentration at which the effect is half-maximal – in assay [2] was in the range of 200 to 2000 nM.
For `CC(C)C[C@H](NC(=O)[C@H](CCCNC(=N)N[N+](=O)[O-])NC(=O)C(C)c1ccccc1)B(O)O` (mixture of isomers) [D.7.4, Boronic acid, [(1R)-1-[[(2S)-5-[[imino(nitroamino)methyl]amino]-2[((2RS)-2-phenylpropanoyl)amino]-1-oxopentyl]amino]-3-methylbutyl]] the same measures were < 10 nM and > 10000 nM.
On the same counts, the results for `CC(C)C[C@H](NC(=O)[C@H](CCCNC(=N)N[N+](=O)[O-])NC(=O)C1CCN(C(=O)OC(C)(C)C)CC1)B(O)O` (racemic) [D.7.7, Boronic acid, [(1R)-1-[[(2S)-5-[[imino(nitroamino)methyl]amino]-2-[[(4RS)-1-[(1,1-dimethylethoxy)carbonyl]piperidine-4-carbonyl]amino]-1-oxopentyl]amino]-3-methylbutyl]] are < 10 nM and > 10000 nM.
For `CC(C)C[C@H](NC(=O)[C@H](CCCNC(=N)N[N+](=O)[O-])NC(=O)C(CCCCCCCCC#N)C1CCCC1)B(O)O` (mixture of isomers) [E.1.19, Boronic acid, [(1R)-1-[[(2S)-5-[[imino(nitroamino)methyl]amino]-2-[((RS)-10-cyano-2-cyclopentydecanoyl)amino]-1-oxopentyl]amino]-3-methylbutyl]] the same measures were < 10 nM and 200 to 2000 nM.
Turning to `CCCCC(CC)CCC(=O)N[C@@H](CCCNC(=N)N[N+](=O)[O-])C(=O)N[C@@H](CC(C)C)B(O)O` (mixture of isomers) [E.2.23, Boronic acid, [(1R)-1-[[(2S)-5-[[imino(nitroamino)methyl]amino]-2-[((RS)-4-ethyloctanoyl)amino]-1-oxopentyl]amino]-3-methylbutyl]], in assay [1], the half-inhibitory concentration (IC50) was < 10 nM. For the same molecule, the EC50 in assay [2] lay within 200 to 2000 nM.
For `CCC(C)C(=O)N[C@@H](CCCNC(=N)N[N+](=O)[O-])C(=O)N[C@@H](CC(C)C)B(O)O` (mixture of isomers) [E.2.35, Boronic acid, [(1R)-1-[[(2S)-5-[[immo(nitroamino)methyl]amino]-2-[((RS)-2-methylbutanoyl)amino]-1-oxopentyl]amino]-3-methylbutyl]] the same measures were < 10 nM and > 10000 nM.
For `CCCCC(C)CCC(=O)N[C@@H](CCCNC(=N)N[N+](=O)[O-])C(=O)N[C@@H](CC(C)C)B(O)O` (mixture of isomers) [E.2.39, Boronic acid, [(1R)-1-[[(2S)-5-[[imino(nitroamino)methyl]amino]-2-[((RS)-4-methyloctanoyl)amino]-1-oxopentyl]amino]-3-methylbutyl]] the same measures were < 10 nM and 200 to 2000 nM.
Consider `CCCCC(C(=O)N[C@@H](CCCNC(=N)N[N+](=O)[O-])C(=O)N[C@@H](CC(C)C)B(O)O)C1CCCC1` (mixture of isomers) [E.2.59, Boronic acid, [(1R)-1-[[(2S)-5-[[imino(nitroamino)methyl]amino]-2-[[(RS)-2-cyclopentylhexanoyl]amino]-1-oxopentyl]amino]-3-methylbutyl]], for which the IC50 in assay [1] was < 10 nM. For the same molecule, the EC50 in assay [2] is 2000 to 10000 nM.
For `CC(C)C[C@H](NC(=O)[C@H](CCCNC(=N)N[N+](=O)[O-])NC(=O)C(C)c1ccc(Cl)cc1)B(O)O` (mixture of isomers) [E.2.76, Boronic acid, [(1R)-1-[[(2S)-5-[[imino(nitroamino)methyl]amino]-2-[[(RS)-2-(4-chlorophenyl)propanoyl]amino]-1-oxopcntyl]amino]-3-methylbutyl]] the same measures were < 10 nM and 2000 to 10000 nM.
For `CC(C)C[C@H](NC(=O)[C@H](CCCNC(=N)N[N+](=O)[O-])NC(=O)COc1ccc(Br)cc1)B1O[C@@H]2C[C@@H]3C[C@@H](C3(C)C)[C@]2(C)O1` [D.3.80, 2-(4-Bromophenoxy)-acetamide,N-[(1S)-1-[[[(1R)-1-[(3aS,4S,6S,7aR)-hexahydro-3a,5,5-trimethyl-4,6-methano-1,3,2-benzodioxaborol-2-yl]-3-methylbutyl]amino]carbonyl]-4-[[imino(nitroamino)methyl]amino]butyl]], the IC50 in assay [1] was < 10 nM.
Still for that read-out and setting: in the case of `CC(C)C[C@H](NC(=O)[C@H](CCCNC(=N)N[N+](=O)[O-])NC(=O)CC1CC2CCC1C2)B1O[C@@H]2C[C@@H]3C[C@@H](C3(C)C)[C@]2(C)O1` (stereo partly drawn) [D.3.89, 2-(Bicyclo[2.2.1]hept-2-yl)acetamide,N-[(1S)-1-[[[(1R)-1-[(3aS,4S,6S,7aR)-hexahydro-3a,5,5-trimethyl-4,6-methano-1,3,2-benzodioxaborol-2-yl]-3-methylbutyl]amino]carbonyl]-4-[[imino(nitroamino)methyl]amino]butyl]] it was < 10 nM; in that of `CC(C)C[C@H](NC(=O)[C@H](CCCNC(=N)N[N+](=O)[O-])NC(=O)CCCCc1cccs1)B1O[C@@H]2C[C@@H]3C[C@@H](C3(C)C)[C@]2(C)O1` [D.3.115, 5-Thiophen-2-yl-pentanamide,N-[(1S)-1-[[[(1R)-1-[(3aS,4S,6S,7aR)-hexahydro-3a,5,5-trimethyl-4,6-methano-1,3,2-benzodioxaborol-2-yl]-3-methylbutyl]amino]carbonyl]-4-[[imino(nitroamino)methyl]amino]butyl]], < 10 nM.
Same read-out and setting: with `CCCCCCCc1ccc(C(=O)N[C@@H](CCCNC(=N)N[N+](=O)[O-])C(=O)N[C@@H](CC(C)C)B2O[C@@H]3C[C@@H]4C[C@@H](C4(C)C)[C@]3(C)O2)cc1` [D.3.130, 4-Heptylbenzamide,N-[(1S)-1-[[[(1R)-1-[(3aS,4S,6S,7aR)-hexahydro-3a,5,5-trimethyl-4,6-methano-1,3,2-benzodioxaborol-2-yl]-3-methylbutyl]amino]carbonyl]-4-[[imino(nitroamino)methyl]amino]butyl]] the figure was < 10 nM; with `COC(=O)CCCC(=O)N[C@@H](CCCNC(=N)N[N+](=O)[O-])C(=O)N[C@@H](CC(C)C)B(O)O` [E.1.10, Boronic acid, [(1R)-1-[[(2S)-5-[[imino(nitroamino)methyl]amino]-2-[[4-(methoxycarbonyl)butanoyl]amino]-1-oxopentyl]amino]-3-methylbutyl]], < 10 nM; with `CCCCN1CCC(CCCC(=O)N[C@@H](CCCNC(=N)N[N+](=O)[O-])C(=O)N[C@@H](CC(C)C)B(O)O)CC1` [E.1.14, Boronic acid, [(1R)-1-[[(2S)-5-[[imino(nitroamino)methyl]amino]-2-[(1-oxo-4-(1-butylpiperidin-4-yl)butyl)amino]-1-oxopentyl]amino]-3-methylbutyl]], < 10 nM.
On the same count and under the same terms, in the case of `CCCCCCCCCC(=O)N[C@@H](CCCNC(=N)N[N+](=O)[O-])C(=O)N[C@@H](CC(C)C)B1O[C@H](C2CCCCC2)[C@@H](C2CCCCC2)O1` [F.1, Decanamide, N-[(1S)-1-[[[(1R)-1-[(4R,5R)-4,5-dicyclohexyl-[1,3,2]dioxaborolan-2-yl]-3-methylbutyl]amino]carbonyl]-4-[[imino(nitroamino)methyl]amino]butyl]-] it was < 10 nM.

Source of the values: patent US8546608B2, “Proteasome inhibitors and methods of using the same” (Cephalon, Inc., priority 2003, dated 2013).
